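Each compound was tested at five concentrations against cells in 96-well plates for 48 hours. At the TGI there is no net growth.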
Tests used:
Assay in all cases: NCI tumour cell line growth inhibition, 48 h
SK-OV-3 ovarian = tested on: SK-OV-3 ovarian
SK-MEL-28 melanoma = tested on: SK-MEL-28 melanoma
NCI-H23 lung = tested on: NCI-H23 lung
LOX IMVI melanoma = tested on: LOX IMVI melanoma
MCF7 breast = tested on: MCF7 breast
HT29 colon = tested on: HT29 colon
SF-268 CNS = tested on: SF-268 CNS
UO-31 renal = tested on: UO-31 renal
BT-549 breast = tested on: BT-549 breast
HOP-92 NSCLC = tested on: HOP-92 NSCLC
IGROV1 ovarian = tested on: IGROV1 ovarian
SNB-19 CNS = tested on: SNB-19 CNS
MOLT-4 leukemia = tested on: MOLT-4 leukemia
OVCAR-8 ovarian = tested on: OVCAR-8 ovarian
COLO 205 colon = tested on: COLO 205 colon
HCT-15 colon = tested on: HCT-15 colon
CAKI-1 renal = tested on: CAKI-1 renal
HL-60(TB) leukemia = tested on: HL-60(TB) leukemia
UACC-62 melanoma = tested on: UACC-62 melanoma
OVCAR-4 ovarian = tested on: OVCAR-4 ovarian
T-47D breast = tested on: T-47D breast
K-562 leukemia = tested on: K-562 leukemia
HCC-2998 colon = tested on: HCC-2998 colon
A549 NSCLC = tested on: A549 NSCLC
NCI-H226 lung = tested on: NCI-H226 lung
RPMI-8226 leukemia = tested on: RPMI-8226 leukemia
PC-3 prostate = tested on: PC-3 prostate
KM12 colon = tested on: KM12 colon
HOP-62 NSCLC = tested on: HOP-62 NSCLC
SN12C renal = tested on: SN12C renal
HS 578T breast = tested on: HS 578T breast
EKVX NSCLC = tested on: EKVX NSCLC
786-0 renal = tested on: 786-0 renal
SR leukemia = tested on: SR leukemia
SW-620 colon = tested on: SW-620 colon
MDA-N = tested on: MDA-N
ACHN renal = tested on: ACHN renal
MDA-MB-231 breast = tested on: MDA-MB-231 breast
SK-MEL-2 melanoma = tested on: SK-MEL-2 melanoma
NCI/ADR-RES ovarian = tested on: NCI/ADR-RES ovarian
SNB-75 CNS = tested on: SNB-75 CNS
A498 renal = tested on: A498 renal
SF-539 CNS = tested on: SF-539 CNS
MALME-3M melanoma = tested on: MALME-3M melanoma
SK-MEL-5 melanoma = tested on: SK-MEL-5 melanoma
DU-145 prostate = tested on: DU-145 prostate
CCRF-CEM leukemia = tested on: CCRF-CEM leukemia
OVCAR-3 ovarian = tested on: OVCAR-3 ovarian
MDA-MB-435 = tested on: MDA-MB-435
U251 CNS = tested on: U251 CNS
NCI-H522 lung = tested on: NCI-H522 lung
SF-295 CNS = tested on: SF-295 CNS
NCI-H460 lung = tested on: NCI-H460 lung
UACC-257 melanoma = tested on: UACC-257 melanoma
TK-10 renal = tested on: TK-10 renal
RXF 393 renal = tested on: RXF 393 renal
OVCAR-5 ovarian = tested on: OVCAR-5 ovarian
M14 melanoma = tested on: M14 melanoma
HCT-116 colon = tested on: HCT-116 colon

Q: Which results are given for `C=C1c2nc3ccccc3n2C=C(c2ccc(C)cc2)N1c1ccccc1`?
A: TGI (SK-OV-3 ovarian): > 100 µM; TGI (SK-MEL-28 melanoma): > 100 µM; TGI (NCI-H23 lung): > 100 µM; TGI (LOX IMVI melanoma): 66 µM; TGI (MCF7 breast): > 100 µM; TGI (HT29 colon): 9.77 µM; TGI (SF-268 CNS): > 100 µM; TGI (UO-31 renal): > 100 µM; TGI (BT-549 breast): > 86.7 µM; TGI (HOP-92 NSCLC): > 100 µM; TGI (IGROV1 ovarian): > 100 µM; TGI (SNB-19 CNS): > 100 µM; TGI (MOLT-4 leukemia): 99 µM; TGI (OVCAR-8 ovarian): > 63.4 µM; TGI (COLO 205 colon): > 33.2 µM; TGI (HCT-15 colon): > 38 µM; TGI (CAKI-1 renal): > 100 µM; TGI (HL-60(TB) leukemia): 16.3 µM; TGI (UACC-62 melanoma): > 100 µM; TGI (OVCAR-4 ovarian): > 100 µM; TGI (T-47D breast): > 100 µM; TGI (K-562 leukemia): > 100 µM; TGI (HCC-2998 colon): 10.7 µM; TGI (A549 NSCLC): > 100 µM; TGI (NCI-H226 lung): 15.3 µM; TGI (RPMI-8226 leukemia): > 34.5 µM; TGI (PC-3 prostate): > 79.5 µM; TGI (KM12 colon): 22 µM; TGI (HOP-62 NSCLC): > 100 µM; TGI (SN12C renal): > 100 µM; TGI (HS 578T breast): > 30.6 µM; TGI (EKVX NSCLC): > 40.6 µM; TGI (786-0 renal): > 59.9 µM; TGI (SR leukemia): 6.82 µM; TGI (SW-620 colon): > 100 µM; TGI (MDA-N): 4.39 µM; TGI (ACHN renal): > 100 µM; TGI (MDA-MB-231 breast): > 53.6 µM; TGI (SK-MEL-2 melanoma): > 46.1 µM; TGI (NCI/ADR-RES ovarian): > 29.1 µM; TGI (SNB-75 CNS): 15.9 µM; TGI (A498 renal): > 100 µM; TGI (SF-539 CNS): 7.46 µM; TGI (MALME-3M melanoma): > 43.3 µM; TGI (SK-MEL-5 melanoma): 31.9 µM; TGI (DU-145 prostate): > 100 µM; TGI (CCRF-CEM leukemia): > 54.8 µM; TGI (OVCAR-3 ovarian): > 40.9 µM; TGI (MDA-MB-435): 10.7 µM; TGI (U251 CNS): 68.2 µM; TGI (NCI-H522 lung): 25.2 µM; TGI (SF-295 CNS): 13.6 µM; TGI (NCI-H460 lung): 27.1 µM; TGI (UACC-257 melanoma): > 100 µM; TGI (TK-10 renal): > 100 µM; TGI (RXF 393 renal): > 44 µM; TGI (OVCAR-5 ovarian): > 100 µM; TGI (M14 melanoma): > 61.2 µM; TGI (HCT-116 colon): > 81 µM

Q: How did the TGI (SK-OV-3 ovarian) turn out when `Cc1ccc(NC(=O)CC(=O)N2N=C(N(C)c3ccccc3)CC2c2ccccc2)cc1` (stereo not drawn) was run?
A: Its TGI is over 100 µM.

Q: And the TGI (SK-MEL-28 melanoma)?
A: The TGI was over 100 µM.

Q: And the TGI (NCI-H23 lung)?
A: Its TGI is over 100 µM.

Q: And the TGI (LOX IMVI melanoma)?
A: The TGI was over 100 µM.

Q: And the TGI (MCF7 breast)?
A: The TGI was over 100 µM.

Q: What about the TGI (HT29 colon) of the same compound?
A: The TGI was over 100 µM.

Q: What about the TGI (SF-268 CNS) of the same compound?
A: Its TGI is over 100 µM.

Q: What about the TGI (UO-31 renal) of the same compound?
A: The TGI was over 100 µM.

Q: And the TGI (BT-549 breast)?
A: Its TGI is over 100 µM.

Q: What about the TGI (HOP-92 NSCLC) of the same compound?
A: Its TGI is over 100 µM.

Q: And the TGI (IGROV1 ovarian)?
A: The TGI was over 100 µM.

Q: And the TGI (SNB-19 CNS)?
A: The TGI was over 100 µM.

Q: And the TGI (MOLT-4 leukemia)?
A: The TGI was over 100 µM.

Q: What about the TGI (OVCAR-8 ovarian) of the same compound?
A: Its TGI is over 100 µM.

Q: What about the TGI (COLO 205 colon) of the same compound?
A: Its TGI is over 100 µM.

Q: What about the TGI (HCT-15 colon) of the same compound?
A: The TGI was over 100 µM.

Q: And the TGI (CAKI-1 renal)?
A: Its TGI is over 100 µM.

Q: What about the TGI (HL-60(TB) leukemia) of the same compound?
A: The TGI was over 100 µM.

Q: And the TGI (UACC-62 melanoma)?
A: The TGI was over 100 µM.

Q: And the TGI (OVCAR-4 ovarian)?
A: Its TGI is over 100 µM.

Q: What about the TGI (T-47D breast) of the same compound?
A: The TGI was over 100 µM.

Q: What about the TGI (K-562 leukemia) of the same compound?
A: Its TGI is over 100 µM.

Q: And the TGI (HCC-2998 colon)?
A: The TGI was over 100 µM.

Q: What about the TGI (A549 NSCLC) of the same compound?
A: The TGI was over 100 µM.

Q: And the TGI (NCI-H226 lung)?
A: The TGI was over 100 µM.

Q: And the TGI (RPMI-8226 leukemia)?
A: Its TGI is over 100 µM.

Q: What about the TGI (PC-3 prostate) of the same compound?
A: Its TGI is over 100 µM.

Q: What about the TGI (KM12 colon) of the same compound?
A: Its TGI is over 100 µM.

Q: And the TGI (HOP-62 NSCLC)?
A: Its TGI is over 100 µM.

Q: What about the TGI (SN12C renal) of the same compound?
A: Its TGI is over 100 µM.

Q: What about the TGI (HS 578T breast) of the same compound?
A: The TGI was over 100 µM.

Q: And the TGI (EKVX NSCLC)?
A: The TGI was over 100 µM.

Q: And the TGI (786-0 renal)?
A: The TGI was over 100 µM.

Q: And the TGI (SR leukemia)?
A: The TGI was over 100 µM.

Q: What about the TGI (SW-620 colon) of the same compound?
A: The TGI was over 100 µM.

Q: And the TGI (MDA-N)?
A: The TGI was over 100 µM.

Q: What about the TGI (ACHN renal) of the same compound?
A: Its TGI is over 100 µM.

Q: What about the TGI (MDA-MB-231 breast) of the same compound?
A: The TGI was over 100 µM.

Q: What about the TGI (SK-MEL-2 melanoma) of the same compound?
A: Its TGI is over 100 µM.

Q: What about the TGI (NCI/ADR-RES ovarian) of the same compound?
A: The TGI was over 100 µM.

Q: What about the TGI (SNB-75 CNS) of the same compound?
A: Its TGI is 77.9 µM.

Q: What about the TGI (A498 renal) of the same compound?
A: The TGI was over 100 µM.

Q: What about the TGI (SF-539 CNS) of the same compound?
A: Its TGI is over 100 µM.

Q: And the TGI (MALME-3M melanoma)?
A: Its TGI is over 100 µM.

Q: And the TGI (SK-MEL-5 melanoma)?
A: The TGI was over 100 µM.

Q: And the TGI (DU-145 prostate)?
A: The TGI was over 100 µM.

Q: What about the TGI (CCRF-CEM leukemia) of the same compound?
A: Its TGI is over 100 µM.

Q: What about the TGI (OVCAR-3 ovarian) of the same compound?
A: Its TGI is over 100 µM.

Q: What about the TGI (MDA-MB-435) of the same compound?
A: The TGI was over 100 µM.

Q: What about the TGI (U251 CNS) of the same compound?
A: The TGI was over 100 µM.

Q: What about the TGI (NCI-H522 lung) of the same compound?
A: The TGI was over 100 µM.

Q: And the TGI (SF-295 CNS)?
A: Its TGI is over 100 µM.

Q: And the TGI (NCI-H460 lung)?
A: The TGI was over 100 µM.

Q: What about the TGI (UACC-257 melanoma) of the same compound?
A: Its TGI is over 100 µM.

Q: And the TGI (TK-10 renal)?
A: The TGI was over 100 µM.

Q: What about the TGI (RXF 393 renal) of the same compound?
A: Its TGI is over 100 µM.

Q: And the TGI (OVCAR-5 ovarian)?
A: Its TGI is over 100 µM.

Q: What about the TGI (M14 melanoma) of the same compound?
A: Its TGI is over 100 µM.

Q: And the TGI (HCT-116 colon)?
A: The TGI was over 100 µM.

Source: PubChem BioAssay (NCI)
